{
  "source": "paper PMC8253137",
  "about": "“Microbiota-derived butyrate is an endogenous HIF prolyl hydroxylase inhibitor” (Gut Microbes, 2021)",
  "target": "PHD2_181-402 (Homo sapiens, UniProt Q9GZT9)",
  "sequence (Q9GZT9 181-402)": "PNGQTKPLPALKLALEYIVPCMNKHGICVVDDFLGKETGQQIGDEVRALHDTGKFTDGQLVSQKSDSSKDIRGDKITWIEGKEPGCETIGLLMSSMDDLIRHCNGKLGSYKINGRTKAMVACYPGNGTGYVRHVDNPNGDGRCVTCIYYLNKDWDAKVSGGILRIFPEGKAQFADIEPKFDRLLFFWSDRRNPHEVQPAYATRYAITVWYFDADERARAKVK",
  "experiment": "WaterLOGSY 1D NMR binding",
  "details": "for binding to PHD2_181-402 (WaterLOGSY signal): 10 mM ligand, 25 μM PHD2_181-402",
  "from_the_text": "Next, we established whether butyrate binds directly to PHD2_181-402 using 1D WaterLOGSY NMR.[28] This method enables sensitive and robust detection of binding (dissociation constants as weak as μM to low mM) based on the magnetization transfer between water molecules, proteins, and ligands of interest in close proximity via dipolar proton–proton cross-relaxation (nuclear Overhauser effect, NOE). […] Binding and non-binding ligands can be distinguished in a WaterLOGSY spectrum via their opposite signs in relation to water for their corresponding peaks.\nFollowing an established protocol, all NMR analyses were performed using PHD2_181-402 and the diamagnetic element (Zn^2+) rather than a paramagnetic element such as Fe^2+ that would result in inhibitive signal reduction or loss due to fast relaxation induced by the unpaired electron.[63]\nWater-Ligand Observed via Gradient SpectroscopY (WaterLOGSY): Measurements were carried out on a 600 MHz triple-resonance Bruker cryoprobe spectrometer.[28] Selective water inversion was achieved using an iBURP shaped pulse with 15 ms length and an inversion bandwidth of 0.4 ppm. The mixing time was set to 1 s, and the water was suppressed using double Watergate. 1024 scans were acquired with an interscan delay of 2 s. The sample concentration was 25 µM of PHD2_181-402 mixed with 10 mM of the different ligands in NMR buffer (Tris 50 mM, NaCl 20 mM, ZnCl2 100 μM) at pH 6.5.",
  "note": "Entries after “also recorded” stand apart in the source; their conditions may differ.",
  "data": [
    {"smiles": "CCCC(=O)O", "note": "[Butyrate]", "values": [
      {"measurement": "binding to the 2-OG and PHD2_181-402 complex (WaterLOGSY)", "setting": "10 mM butyrate, 25 μM PHD2_181-402, with 150 μM 2-OG", "value": "could not bind; also recorded: absence of binding"},
      {"measurement": "binding to PHD2_181-402 (WaterLOGSY signal)", "value": "clear positive signal, indicative of binding"},
      {"measurement": "binding to PHD2_181-402 (WaterLOGSY signal)", "setting": "listed as Butyric acid", "value": "indicating binding"}
    ]}
  ]
}
